What was measured:
[1] = test system: EML4-ALK fusion polypeptide v1; assay: in vitro kinase activity (autophosphorylation) of purified EML4-ALK fusion polypeptide v1, immunoblotting with anti-phosphorylated ALK antibody; format: biochemical, human
Experimental: (§1) The v1 expressing BA/F3 cells (Example 5(1)) were cultured in RPM1640 medium containing 10% of fetal bovine scrum to obtain 2.7×10^9 cells. After washing 3 times with PBS, cells were lysed in a lysis solution (50 mM Tris HCl (pH7.4), 150 mM NaCl, 1% Triton×100, 5 mM EDTA, 5 mM EGTA, 1 mM NaVO4, 1 mM DTT and protease inhibitor cocktail complete). The EML4-ALK fusion polypeptide v1 present in the supernatant obtained after a centrifugation was purified using ANTI-FLAG M2 Affinity Gel (SIGMA-ALDRICH Inc) according to the method described in the product information document. For washing and elution, the washing solution (50 mM Tris.HCl (pH7.4), 250 mM NaCl, 0.05% Brij35, 1 mM EDTA, 1 mM EGTA, 1 mM NaVO4, 1 mM DTT, complete) and the elution solution (50 mM Tris.HCl (pH7.4), 150 mM NaCl, 0.05% Brij35, 1 mM DTT, 0.5 mg/mL FLAG peptide) were used, respectively. Immunoblotting using anti-ALK antibody and anti FLAG M2 antibody (SIGMA-ALDRICH Inc.) and silver staining were carried out for the eluate to detect the EML4-ALK fusion polypeptide v1.
The EML4-ALK fusion polypeptide v1 purified as described above was diluted in a reaction solution (15 mM Tris HCl (pH7.4), 0.25 mM MgCl2, 0.01% Tween-20, 2 mM DTT), and then ATP was not added or ATP 20 μM was added. The respective mixtures were reacted at room temperature for 1 hour. After the reaction, the auto phosphorylated EML4-ALK fusion polypeptide v1 and the EML4-ALK fusion polypeptide v1 were detected by immunoblotting using anti-phosphorylated ALK antibody, which recognizes specifically the product phosphorylated at the 1604th tyrosine residue of ALK, and anti-ALK antibody, and quantitated by an image analysis system (VersaDoc Imaging System; Bio-Rad Inc.). The amount of phosphorylation was calibrated by dividing the count of the autophosphorylated EML4-ALK fusion polypeptide v1 by the count of the EML4-ALK fusion polypeptide v1. As the result, the autophosphorylated EML4-ALK fusion polypeptide v1 band was detected at the location of about 130 kDa under the condition of ATP addition, and the amount of phosphorylation was increased by about 205 folds compared to no-ATP addition.
(§2) The inhibitory effect of compound A-D against the in vitro kinase activity of the EML4-ALK fusion polypeptide v1 was investigated using anti-phosphorylated ALK antibody and the kinase activity detection kit. Respective compounds were added to the reaction solution containing the EML4-ALK fusion polypeptide v1 at a final concentration of 10 μM or 10 nM, and then the reaction was carried out with or without the addition of ATP. The rest of the operations were carried out according to the method (2) described above. […] The inhibition (%) of the kinase activity of the EML4-ALK fusion polypeptide v1 by a compound was calculated by the following formula. […]

[2] = test system: EML4-ALK fusion polypeptide v1; assay: in vitro phosphorylation of peptide substrate (TK substrate 1) by EML4-ALK fusion polypeptide v1, HTRF KinEASE-TK kit; format: biochemical, human
Experimental: as §1
In addition, the phosphorylation activity toward a peptide substrate was investigated using a kinase activity detection kit (HTRF KinEASE-TK; Cisbio Inc.). Using TK substrate 1, which was included in the kit, as the substrate, and after adding no ATP or 100 μM ATP, the mixtures were reacted at room temperature for 1 hour, and the count of HTRF was detected as recommended by the Kits manufacturer. As the result it became clear that the count of HTRF (that is, phosphorylation of the peptide substrate) was increased by about 12 times by the addition of ATP compare to no addition of ATP. As shown above, the in vitro kinase activity of the EML4-ALK fusion polypeptide v1 can be detected using anti-phosphorylated ALK antibody and the kinase activity detection kit.
as §2

[3] = test system: EML4-ALK fusion polypeptide v1; assay: intracellular autophosphorylation of EML4-ALK fusion polypeptide v1 in v1 expressing BA/F3 cells; format: cell-based, human; conditions: for Inhibition on autophosphorylation (BA/F3cells): 6 hours
Experimental: Compound A (1 μM, 5 μM and 10 μM) was added to the culture medium of v1 expressing BA/F3 cells (Example 5(1)) or not added, and cultured for 3 hours. In addition, BA/F3 cells expressing FLAG-EML4-ALKv1(K589M) were produced using pMX-iresCD8 vector in which EML4-ALK (K589M) was integrated so that FLAG can be added, and cultured. After culturing, cells were counted and the level of phosphorylation of tyrosine of EML4-ALK fusion polypeptide v1 was measured by immunoblotting using anti-phosphorylated ALK antibody. Further, for the same transfer membrane, immunoblotting analysis by anti-FLAG tag antibody (Eastman Kodak Inc.) was carried out, and total protein quantity of the FLAG attached EML4-ALK fusion polypeptide v1 was measured.
However, the culturing time after the addition of the compounds was 6 hours, and the total protein amount of the EML4-ALK fusion polypeptide v1 was measured using anti-ALK antibody. In addition, the amount of phosphorylation was calculated by quantitating as in Example 7(2). Also, for compound A, the amount of phosphorylation was calculated by quantitating in experiment under this condition. The rate of inhibition was calculated from the amount of phosphorylation when the compound was added, using the value when the compound was not added (the solvent of the compound, DMSO was added) as a control (0% inhibition).

[4] = biological target: T1, EML4-ALK fusion polypeptide v1 (Homo sapiens, UniProt Q9UM73, D1529E/I1461V/K1491R); assay: intracellular autophosphorylation of EML4-ALK fusion polypeptide v1 in v1 expressing 3T3 cells; format: cell-based; conditions: 4 hours
T1 construct: expressed in transfected cells; host or cells: mouse 3T3 fibroblasts transfected with EML4-ALKv1/pMXS (v1 expressing 3T3 cells); for A10, grown as a subcutaneous tumour in nude mice

v1 expressing 3T3 cells = assay: anchorage independent growth on spheroid plate, v1 expressing 3T3 cells; format: cell-based, mouse
Experimental: (§3) The v1 expressing 3T3 cells (Example 6(1)) and one of the human glioma cells expressing the full length ALK polypeptide and not expressing EML4-ALK fusion polynucleotide endogenously, U-87 MG cells, were seeded to a 96 well spheroid plate (Sumilon Celltight Spheroid 96U, Sumitomo Bakelite Inc.) at 3000 cells per well in a medium containing 10% fetal bovine serum (DMEM for v1 expressing 3T3 cells and RPMI 1640 for U-87MG). […] At the same time, cells were counted before the addition of drugs (Day 0). Then, cells were cultured under 5% CO2, at 37° C. for 3 days, mixed with a reagent for measuring cell number (CellTiter-Glo™ Luminescent Cell Viability Assay; Promega Inc.) stirred for 20 minutes, and the measurements (day 3) were carried out using a luminometer (ML3000 microtiter plate luminometer; Dynatech Laboratories Inc.).

U-87MG cells = assay: anchorage independent growth on spheroid plate, U-87MG cells expressing full length ALK; format: cell-based, human; conditions: 3 days
Experimental: as §3

[5] = test system: CD8 expressing BA/F3 cells; assay: growth of CD8 expressing BA/F3 cells in the presence of IL-3; format: cell-based, mouse; conditions: 1 μM, 5 μM or 10 μM
[6] = test system: v1 expressing BA/F3 cells; assay: growth of v1 expressing BA/F3 cells in the absence of IL-3; format: cell-based, mouse; conditions: 1 μM, 5 μM or 10 μM
Experimental: Next, compound A, which is a substance that inhibits the EML4-ALK fusion polypeptide v1, was added to BA/F3 cells which obtained the IL-3 independent growth potential by expressing the EML4-ALK fusion polypeptide v1, and its effect on cell growth was investigated. […] That is, it was confirmed that cells, growing dependently on the EML4-ALK fusion polynucleotide (oncogene), were killed by an inhibitor of the EML4-ALK fusion polypeptide v1.

NPM-ALK = biological target: T2, NPM-ALK (Homo sapiens, UniProt Q9UM73); conditions: Non-Patent Document 22; cited from earlier work
T2 construct: the other entry of the earlier key: NPM1 (P06748, Nucleophosmin)

[7] = test system: v1 expressing 3T3 cells (tumor); assay: anti-tumor test against v1 expressing 3T3 cells inoculated subcutaneously in nude mice; format: in vivo, mouse; conditions: once a day for 10 days, start 6 days after inoculation, otherwise similar procedure
Experimental: Administrations were performed once a day for 14 days, and body weight and tumor size were measured every other day. Tumor volume was calculated using the following formula. […] The administration of the compound D was started after 6 days of the inoculation and carried out once a day for 10 days, and then the tumor size was measured.

[8] = biological target: T3, EML4-ALK fusion polypeptide v2 (Homo sapiens, UniProt Q9UM73, D1529E/I1461V/K1491R); assay: intracellular autophosphorylation of EML4-ALK fusion polypeptide v2 in 293EBNA cells; format: cell-based; conditions: final concentration 10 nM, 4 hours
T3 construct: expressed in transfected cells; host or cells: 293EBNA cells (Invitrogen) transfected with FLAG-EML4-ALKv2/pcDNA3
T3 sequence (Q9UM73 with tags, fused parts or gaps I1461V/K1491R/D1529E): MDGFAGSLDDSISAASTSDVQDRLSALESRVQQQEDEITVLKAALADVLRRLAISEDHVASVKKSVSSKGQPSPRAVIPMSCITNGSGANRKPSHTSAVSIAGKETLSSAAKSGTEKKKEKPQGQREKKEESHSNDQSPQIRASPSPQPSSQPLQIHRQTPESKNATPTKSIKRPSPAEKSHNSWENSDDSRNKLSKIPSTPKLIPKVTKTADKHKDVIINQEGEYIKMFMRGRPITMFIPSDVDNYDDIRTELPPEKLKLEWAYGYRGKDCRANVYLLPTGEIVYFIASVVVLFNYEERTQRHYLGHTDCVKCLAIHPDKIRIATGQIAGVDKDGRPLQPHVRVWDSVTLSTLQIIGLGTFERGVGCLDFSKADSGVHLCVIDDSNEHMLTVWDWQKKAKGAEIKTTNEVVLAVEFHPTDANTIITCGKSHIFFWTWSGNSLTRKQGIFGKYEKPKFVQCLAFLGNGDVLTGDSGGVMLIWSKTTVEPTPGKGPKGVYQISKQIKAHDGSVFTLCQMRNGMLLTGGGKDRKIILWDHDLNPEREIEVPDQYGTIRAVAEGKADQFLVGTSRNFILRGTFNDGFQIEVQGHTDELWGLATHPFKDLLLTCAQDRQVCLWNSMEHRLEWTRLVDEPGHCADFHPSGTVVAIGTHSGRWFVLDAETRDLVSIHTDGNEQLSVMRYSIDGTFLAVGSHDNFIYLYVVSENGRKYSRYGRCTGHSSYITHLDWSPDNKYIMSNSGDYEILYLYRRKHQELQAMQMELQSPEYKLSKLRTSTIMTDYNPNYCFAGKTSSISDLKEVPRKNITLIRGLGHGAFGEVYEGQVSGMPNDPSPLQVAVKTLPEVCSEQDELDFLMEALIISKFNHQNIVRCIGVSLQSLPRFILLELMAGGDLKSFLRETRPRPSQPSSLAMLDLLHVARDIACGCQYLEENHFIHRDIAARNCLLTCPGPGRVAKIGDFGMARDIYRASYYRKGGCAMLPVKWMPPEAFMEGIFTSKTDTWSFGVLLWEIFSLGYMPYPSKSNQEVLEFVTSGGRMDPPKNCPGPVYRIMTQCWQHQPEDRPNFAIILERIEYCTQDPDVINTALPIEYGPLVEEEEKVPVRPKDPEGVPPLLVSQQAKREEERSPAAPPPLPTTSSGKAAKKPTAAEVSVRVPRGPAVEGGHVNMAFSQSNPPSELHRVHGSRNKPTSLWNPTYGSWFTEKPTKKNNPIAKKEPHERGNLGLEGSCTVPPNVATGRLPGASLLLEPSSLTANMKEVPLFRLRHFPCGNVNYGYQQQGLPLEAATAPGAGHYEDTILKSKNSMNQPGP

T1 sequence (Q9UM73 with tags, fused parts or gaps I1461V/K1491R/D1529E): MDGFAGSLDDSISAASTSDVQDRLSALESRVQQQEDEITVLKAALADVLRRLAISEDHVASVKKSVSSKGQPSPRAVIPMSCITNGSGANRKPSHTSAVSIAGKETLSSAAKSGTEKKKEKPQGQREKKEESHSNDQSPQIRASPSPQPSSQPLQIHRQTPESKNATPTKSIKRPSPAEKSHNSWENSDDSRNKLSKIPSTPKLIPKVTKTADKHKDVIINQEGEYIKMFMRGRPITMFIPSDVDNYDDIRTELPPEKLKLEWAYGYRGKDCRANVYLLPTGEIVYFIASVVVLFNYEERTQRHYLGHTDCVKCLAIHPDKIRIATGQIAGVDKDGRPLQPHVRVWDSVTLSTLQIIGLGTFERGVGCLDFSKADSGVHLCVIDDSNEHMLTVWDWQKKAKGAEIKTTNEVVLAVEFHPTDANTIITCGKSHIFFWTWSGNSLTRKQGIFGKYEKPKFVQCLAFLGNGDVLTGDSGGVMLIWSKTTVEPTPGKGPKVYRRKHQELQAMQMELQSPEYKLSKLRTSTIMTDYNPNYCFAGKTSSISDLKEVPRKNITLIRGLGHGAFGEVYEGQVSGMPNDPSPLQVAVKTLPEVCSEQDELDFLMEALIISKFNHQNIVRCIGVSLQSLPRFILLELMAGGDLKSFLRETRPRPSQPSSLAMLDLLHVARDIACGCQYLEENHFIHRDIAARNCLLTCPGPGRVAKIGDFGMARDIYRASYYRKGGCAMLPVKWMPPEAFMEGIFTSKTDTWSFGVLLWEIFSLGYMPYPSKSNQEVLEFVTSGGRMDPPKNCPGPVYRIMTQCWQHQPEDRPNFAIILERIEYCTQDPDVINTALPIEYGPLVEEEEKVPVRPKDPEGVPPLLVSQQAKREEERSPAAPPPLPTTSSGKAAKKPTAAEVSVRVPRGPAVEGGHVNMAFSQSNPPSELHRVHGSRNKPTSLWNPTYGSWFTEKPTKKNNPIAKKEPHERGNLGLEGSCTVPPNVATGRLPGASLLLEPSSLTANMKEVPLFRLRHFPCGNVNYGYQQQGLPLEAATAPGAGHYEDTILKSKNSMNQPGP
T2 sequence (Q9UM73 with tags, fused parts or gaps): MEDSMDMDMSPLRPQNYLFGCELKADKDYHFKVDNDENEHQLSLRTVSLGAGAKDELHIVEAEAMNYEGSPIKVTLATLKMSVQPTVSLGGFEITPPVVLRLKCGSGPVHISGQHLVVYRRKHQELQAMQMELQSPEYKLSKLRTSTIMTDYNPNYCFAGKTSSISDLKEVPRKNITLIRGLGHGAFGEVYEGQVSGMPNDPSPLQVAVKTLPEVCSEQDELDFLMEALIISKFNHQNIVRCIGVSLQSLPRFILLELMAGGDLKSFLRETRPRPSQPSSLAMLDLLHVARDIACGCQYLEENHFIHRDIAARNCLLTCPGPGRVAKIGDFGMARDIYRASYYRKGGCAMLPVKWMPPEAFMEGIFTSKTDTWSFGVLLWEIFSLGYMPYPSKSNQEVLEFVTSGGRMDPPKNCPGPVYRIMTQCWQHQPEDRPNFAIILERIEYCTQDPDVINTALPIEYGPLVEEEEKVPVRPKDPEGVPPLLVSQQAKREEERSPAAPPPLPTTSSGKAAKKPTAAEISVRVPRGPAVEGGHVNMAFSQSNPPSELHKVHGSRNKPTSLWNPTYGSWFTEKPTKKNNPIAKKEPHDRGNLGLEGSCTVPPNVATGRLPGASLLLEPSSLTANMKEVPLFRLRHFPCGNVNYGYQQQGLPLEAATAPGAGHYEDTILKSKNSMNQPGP

Compound: COc1cc2ncnc(Nc3ccc(O)c(Br)c3)c2cc1OC [compound A, 4-[(3′-Bromo-4′-hydroxyphenyl)amino]-6,7-dimethoxyquinazoline]
- Inhibition on autophosphorylation ([1]; final concentration 10 μM): 104%
- Inhibition on peptide substrate ([2]; final concentration 10 μM): 99%
- intracellular autophosphorylation of the EML4-ALK fusion polypeptide v1 (FIG. 4) ([3]; 1 μM, 5 μM and 10 μM, 3 hours): inhibits the intracellular autophosphorylation of the EML4-ALK fusion polypeptide v1 in a concentration-dependent manner
- Inhibition on autophosphorylation (BA/F3cells) ([3]; final concentration 10 μM): 74%
- Inhibition on autophosphorylation (3T3cells) ([4]; final concentration 10 μM): 82%
- inhibition rate of anchorage independent growth, v1 expressing 3T3 cells (v1 expressing 3T3 cells; final concentration 10 μM, 3 days, Day 0 = 100%, Day 3 = 0% inhibition): 106%
- inhibition rate of anchorage independent growth, U-87MG cell (U-87MG cells; final concentration 10 μM): 15%
- cell growth of CD8 expressing BA/F3 cells (FIG. 6(a)) [5]: a slight growth inhibition was observed
- cell growth of v1 expressing BA/F3 cells (FIG. 6(b)) [6]: the cell growth was markedly inhibited by concentration-dependence of compound A and cell death was induced
- activity of NPM-ALK (NPM-ALK): inhibit the activity of NPM-ALK

Compound: CNS(=O)(=O)c1ccccc1Nc1nc(Nc2ccc(N3CCN(C)CC3)cc2OC)ncc1Br [compound D, 2-[(5-bromo-2-{[2-methoxy-4-(4-methylpiperazin-1-yl)phenyl]amino}pyrimidin-4-yl)amino]-N-methylbenzenesulfonamide]
- Inhibition on autophosphorylation ([1]; final concentration 10 nM): 96%
- Inhibition on peptide substrate ([2]; final concentration 10 nM): 99%
- Inhibition on autophosphorylation (BA/F3cells) ([3]; final concentration 10 nM): 90%
- inhibition at 0.01 µM ([4]; NIH3T3, final concentration 10 nM, read-out: Inhibition on autophosphorylation (3T3cells)): 86%
- inhibition at 0.01 µM (v1 expressing 3T3 cells; Mus musculus, NIH3T3, read-out: inhibition rate of anchorage independent growth, v1 expressing 3T3 cells): 135%
- inhibition at 0.01 µM (U-87MG cells; Homo sapiens, U-87 MG, 72 h, final concentration 10 nM, read-out: inhibition rate of anchorage independent growth, U-87MG cell): -2%
- inhibition of growth of v1 expressing 3T3 cells (tumor), tumor volume [7]: 101%
- inhibition at 0.01 µM [8]: 95%

From US9932589B2, “EML4-ALK fusion gene” (Astellas Pharma Inc., priority 2006, dated 2018)
